Test results from patent US11993576B2, “N-benzyl-N-arylsulfonamide derivative and preparation and use thereof” (Hangzhou Yirui Pharmaceutical Technology Co., Ltd, priority 2019, dated 2024).
Entries after “also recorded” stand apart in the source; their conditions may differ.

Legend:
human Kv1.3 [1] = molecular target: T1, human Kv1.3 (Homo sapiens, UniProt P22001); assay: IonWorks automated patch clamp assay of inhibitory activity against Kv1.3; type: cell-based; conditions: automated patch clamp method; CHO-K1 cells stably expressing human Kv1.3
Procedure: I. IonWorks Automated Patch Clamp Assay of Inhibitory Activity Against Kv1.3
The principle and method for Kv1.3 IonWorks assay can be found in Schroeder et al. [Schroeder et al. J Biomol Screen 2003, 8(1):50-64]
Inhibitory activity of the compounds against Kv1.3 was assessed using a CHO-K1 recombinant cell line stably expressing human Kv1.3 (Charles River, Calif.). The cells were cultured in an F-12K culture medium containing 5% calf serum (Invitrogen, Carlsbad. Calif.) in an incubator at 37° C. and under air humidity with 6% CO2. Prior to be fed in the IonWorks system, the adherent cells were treated with Versene at 37° C. for 6-7 min. After gently beating the culture flask, the cells were re-suspended in a PBS phosphate buffer, and then were centrifuged at 50×g for 4 min. After a short grinding, the cells were eventually re-suspended in an external recording solution at a density of approximately 1×10^6/mL.
The compounds were dissolved in DMSO to formulate a final assay concentration of 300× on the master plate. The final gradient assay concentrations were […], 0.096, 0.048, 0.24, 1.2, 6 and 30 μM. All 300× stock solutions of each compound in DMSO were transferred to a 384-well plate with 2 μl per well. The plates were sealed and stored at −80° C. until the day of assay.
On the day of assay, the plates were each thawed at room temperature. After centrifugation, 198 μl of the external recording solution (with the components of: 130 mM Na-Gluconate, 20 mM NaCl, 4 mM KCl, 1 mM MgCl2, 1.8 mM CaCl2, 5 mM Glucose and 10 mM HEPES, pH7.3) was added and mixed thoroughly. This step provided a 1:100 dilution for the compounds. After addition of cells to IonWorks, a further 1:3 dilution was carried out, resulting in a total dilution of 1:300. At least 8 wells were reserved as blank control on each of the plates, i.e., containing only 0.3% DMSO. In addition, at least 8 wells were reserved as positive control to detect the specificity to cell signals. Fluoxetine, a compound as the positive control, was assayed at its maximum blocking concentration (100 μm) and secondary maximum blocking concentration (10 μm). In addition, an internal recording solution used in the assay (with the components of: 100 mM K-gluconate, 40 mM KCl, 1 mM MgCl2, 1 mM EGTA and 10 mM HEPES, pH7.3) contained Amphotericin B at a final concentration of 200 μg/mL to gain current channels inside the cells. The osmotic pressure of the solution was adjusted with sucrose.
Experimental procedures were carried out following the protocols as set by IonWorks Quattro system (Molecular Devices, San Jose, CA). The current of human Kv1.3 was elicited to 0 millivolt (mV) for four times by a pulse lasting 1 second. A potential of −80 mV was maintained between pulses, for 5 seconds. First, a early voltage application program was started in the IonWorks Quattro system, and then the compounds were added and incubated for 600 seconds. Next, a late voltage application program was started until completion of all assays.
The maximum peak outward currents both before and after addition of the compounds as well as the average tail current elicited when the fourth pulse rose to 0 mV were measured. The inhibitory activity of the compounds against Kv1.3 can be calculated by dividing the measured current amplitude after addition of the compounds by the measured current amplitude before addition of the compounds.
All data was calibrated by a data filtration program of the IonWorks Quattro system. The filtration standard was that: seal quality >30 MΩ, decrease of seal resistance <50% and current amplitude >200 pA.

human Kv1.3 [2] = molecular target: T1, human Kv1.3; assay: Conventional patch clamp assay of inhibitory activity against Kv1.3; type: cell-based; conditions: conventional patch-clamp method; CHO-K1 cells stably expressing human Kv1.3
From the text: II. Conventional Patch Clamp Assay of Inhibitory Activity Against Kv1.3
In order to compare the influence of different assay methods on the inhibitory activity of a compound, the conventional patch clamp method was used to assay the inhibitory activities of compounds 21, 37, 44, 61 against Kv1.3. The principle and method for the conventional patch clamp method can be found in Grissmer et al. [Grissmer et al. Molecular Pharmacology 1994, 45:1227-1234].
(§1) Inhibitory activity of the compounds against Kv1.3 was assessed using a CHO-K1 recombinant cell line stably expressing human Kv1.3 (Charles River, California). The cells were cultured in an F-12K culture medium containing 5% calf serum (Invitrogen, Carlsbad.ca) in an incubator at 37° C. and under air humidity with 6% CO2.
(§2) During the experiment, adherent cells were placed in a recording chamber under an inverted microscope. All the experiments were performed at room temperature. Each of the cells used itself as the control.
(§3) The test compounds were formulated to their final concentrations on the day of assay, and then dissolved in an extracellular fluid. The extracellular fluid (mM) was: NaCl, 137; KCl, 4; CaCl2, 1.8; MgCl2, 1; HEPES, 10; glucose 10; pH 7.4 (NaOH titration). All the solutions of the test compounds and the control compounds contained 0.3% of DMSO.
(§4) Each of the compounds was perfused by a gravity-driven perfusion system. At least two cells were tested for each of the concentrations of a compound. After the current was stable, the blocking effect of the compounds was calculated by comparing the change in the current before and after administration of the compounds. 1000 μM 4-AP was used as a positive control.
(§5) The cells were transferred to a perfusion chamber, and were perfused with the extracellular fluid. Intracellular fluid (mM): K-aspartate, 130; MgCl2, 5; EGTA 5; HEPES, 10; pH 7.2 (KOH titration). The intracellular fluid was stored in a small amount in a refrigerator at −80° C. in batches, and was thawed on the day of the experiment. The electrodes were drawn by PC-10 (Narishige, Japan). A whole-cell patch-clamp recording was performed, with the noise being filtered by one-fifth of the sampling frequency.
(§6) The cells were clamped at −80 mV and then depolarized to 0 mV with square waves lasting for 2 seconds to obtain a Kv1.3 current. This process was repeated every 20 seconds. The maximum current elicited by the square waves was detected. After the maximum current became stable, the test compounds were perfused. After the reaction was stable, the blocking strength was calculated.
Data was collected and analyzed using pCLAMP 10 (Molecular Devices, Union City, CA). A stable current meant a current which varies within a limited range over time. […]

human Kv1.5 = human Kv1.5 (Homo sapiens, UniProt P22460); assay: Conventional patch clamp assay of inhibitory activity against Kv1.5; type: cell-based; conditions: conventional patch-clamp method; CHO-K1 cells stably expressing human Kv1.5
Procedure: III. Conventional Patch Clamp Assay of Inhibitory Activity Against Kv1.5
The principle and method for the conventional patch clamp method can be found in Grissmer et al. [Grissmer et al. Molecular Pharmacology 1994, 45:1227-1234].
as §1, with “a” for “the”, “Kv1.5” for “Kv1.3”, “Calif.).” for “California).”
as §2, §3
as §4, with “compounds.” for “compounds. 1000 μM 4-AP was used as a positive control.”
1000 μM 4-AP was used as a positive control.
as §5
as §6, with “to 20” for “to 0”, “a Kv1.5” for “a Kv1.3”
Data was collected and analyzed using pCLAMP 10 (Molecular Devices, Union City, CA). A stable current meant a current which varies within a limited range over time. The value of the stable current was used to calculate the effect of a compound at this […].

[3] = tested on: SCID mouse psoriasis xenograft model; conditions: injection or topical skin application; cited from earlier work
[4] = tested on: allergic contact dermatitis; conditions: applied topically, rat; cited from earlier work
[5] = tested on: rat model of psoriasis induced by imiquimod; assay: Rat model of psoriasis induced by imiquimod; type: in vivo; conditions: Wista female rats; for pathological analysis of skin (HE×100): skin lesions of the back collected on day 11, FIG. 3
Procedure: V. Effects of Compound 24 on a Rat Model of Psoriasis Induced by Imiquimod
SPF Wista female rats with body weight of around 200 g were used.
Dexamethasone (DXMS) sodium phosphate injection, 5 mg/ml/injection (Shiyao Yinhu Pharmaceutical Co., Ltd.); 5% imiquimod cream, 0.25 g/pack (Sichuan MED-SHINE Pharmaceutical Co., Ltd.); 3×10^6 U recombinant human interferon α-2a injection, 1.0 ml/vial (Shenyang Sunshine Pharmaceutical Co., Ltd.); vehicle and negative control: acetone/DMSO 9:1 (Vehicle).
3.1 The animals were randomly divided into 6 groups based on body weight with 10 animals per group: normal control group, model control group, positive control group (dexamethasone sodium phosphate injection 5 mg/mL), 1% Compound 24 group, 0.3% Compound 24 group and 0.1% Compound 24 group.
3.2 Modelling and administration: after adaptive feeding for several days, for each of the rats, hair in central area of the back (2 cm×2 cm) was shaved, and then the surface short hair was shaved with mild depilatory cream, washed and dried. If hair on the back grew out again during the experiment, the hair was removed with a razor. Every morning, for the rats in model control group and administration groups, 5% imiquimod cream was evenly applied on the back at 20 mg/cm^2 (0.25 g/pack, for 3 rats), and after 10 min, recombinant human interferon α-2a injection was injected intraperitoneally at 10,000 U/500 g; for the normal control group, the rats were not treated, once a day, for 10 days. In the afternoon, for the rats in the administration groups, drugs were applied at a corresponding dose (drugs with corresponding concentrations were applied on the back at 100 μL/rat, twice, 50 μL each time) once a day for 10 days.
3.3 Psoriasis Area and Severity Index (PASI) score: according to PASI scoring standard, a score of 0-4 was given for erythema, scale and epidermal thickening of infiltration in the lesional skin of rats. The scoring criteria was as follows: 0, none; 1, mild; 2, moderate; 3, severe; 4, extremely severe. For the rats in each of the groups, the scores were averaged and changes in skin lesions of the rats were observed.
3.4 HE staining: after completion of modeling (on day 11), the tissues with skin lesions on the back of rats were collected, fixed with 4% neutral formaldehyde, embedded in paraffin, and sectioned. After HE staining, changes in skin histomorphology were observed under a microscope, and Baker scoring was performed. […]
3.5 Statistical Methods: all data was expressed as mean±standard deviation (x±s). […]

human Kv1.5, sequence (P22460 whole entry): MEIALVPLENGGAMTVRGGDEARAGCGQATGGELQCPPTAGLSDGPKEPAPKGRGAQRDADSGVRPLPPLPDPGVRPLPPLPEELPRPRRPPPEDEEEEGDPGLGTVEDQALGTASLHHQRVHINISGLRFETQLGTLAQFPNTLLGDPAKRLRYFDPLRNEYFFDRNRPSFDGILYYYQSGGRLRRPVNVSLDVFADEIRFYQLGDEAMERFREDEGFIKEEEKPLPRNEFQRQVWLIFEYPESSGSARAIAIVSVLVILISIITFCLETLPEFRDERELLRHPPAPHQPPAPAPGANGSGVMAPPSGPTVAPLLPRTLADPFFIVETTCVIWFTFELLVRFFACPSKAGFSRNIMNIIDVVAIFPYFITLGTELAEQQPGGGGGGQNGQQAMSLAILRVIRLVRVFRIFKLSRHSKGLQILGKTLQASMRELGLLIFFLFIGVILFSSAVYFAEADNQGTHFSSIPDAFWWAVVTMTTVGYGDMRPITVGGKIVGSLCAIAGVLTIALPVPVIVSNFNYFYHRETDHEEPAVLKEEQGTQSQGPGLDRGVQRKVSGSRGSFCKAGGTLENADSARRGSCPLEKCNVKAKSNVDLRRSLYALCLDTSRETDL
T1 sequence (P22001 whole entry): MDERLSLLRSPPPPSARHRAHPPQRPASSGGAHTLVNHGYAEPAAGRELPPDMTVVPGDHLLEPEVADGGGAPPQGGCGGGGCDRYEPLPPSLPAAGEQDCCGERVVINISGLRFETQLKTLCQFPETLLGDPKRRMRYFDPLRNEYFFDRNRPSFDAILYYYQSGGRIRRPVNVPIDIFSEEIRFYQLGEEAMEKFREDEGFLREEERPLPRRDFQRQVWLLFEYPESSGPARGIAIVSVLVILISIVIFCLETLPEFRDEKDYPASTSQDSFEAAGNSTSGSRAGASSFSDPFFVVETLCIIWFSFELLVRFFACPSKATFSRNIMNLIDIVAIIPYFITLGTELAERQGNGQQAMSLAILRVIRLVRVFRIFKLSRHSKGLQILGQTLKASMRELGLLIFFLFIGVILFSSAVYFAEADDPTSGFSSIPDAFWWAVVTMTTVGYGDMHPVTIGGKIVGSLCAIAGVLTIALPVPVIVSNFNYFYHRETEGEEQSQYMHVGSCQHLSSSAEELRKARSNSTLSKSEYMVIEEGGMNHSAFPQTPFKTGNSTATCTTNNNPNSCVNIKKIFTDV

CCCS(=O)(=O)N(Cc1ccc(F)cc1)c1ccc(N2CCN(C(=O)N(C)C)CC2)c(C#N)c1 [Compound 21, 4-(2-cyano-4-(N-(4-fluorobenzyl)propyl)phenyl)-N,N-dimethylpiperazin-1-formamide]
IC50 (human Kv1.3 [1]): 0.097 µM | IC50 (human Kv1.3 [2]): 0.141 µM | IC50 (human Kv1.5): 2.82 µM

CCCS(=O)(=O)N(Cc1ccccc1)c1ccc(N2CCN(C(=O)OCC)CC2=O)c(C#N)c1 [Compound 61, ethyl 4-(4-(N-benzylpropanesulfonamido)2-cyanophenyl)-3-oxopiperazin-1-formate]
IC50 (human Kv1.3 [1]): 0.092 µM | IC50 (human Kv1.3 [2]): 0.13 µM | IC50 (human Kv1.5): 2.11 µM

O=c1ccc2c(OCCCCOc3ccccc3)c3ccoc3cc2o1 [PAP-1]
reduction of infiltrated CD3+ lymphocytes [3]: 85% | reduction of thickness of pathological epidermal hyperplasia [3]: approximately 50% | allergic contact dermatitis [4]: can effectively inhibit allergic contact dermatitis

CCCS(=O)(=O)N(Cc1ccc(Cl)cc1)c1ccc(N2CCN(C(=O)OCC)CC2)c(C#N)c1 [Compound 24]
IC50 (human Kv1.3 [1]): 0.086 µM | PASI score ([5]; 1%, 0.3%, 0.1% applied on the back once a day for 10 days, FIG. 2A): had a significant effect on psoriasis in a dose-dependent manner; also recorded: exhibited a significant efficacy on psoriasis in a dose-dependent manner | Baker score ([5]; 1%, 0.3%, 0.1% applied on the back once a day for 10 days, HE staining day 11, FIG. 2B): had a significant effect on psoriasis in a dose-dependent manner; also recorded: exhibited a significant efficacy on psoriasis in a dose-dependent manner | pathological analysis of skin (HE×100) [5]: had a significant effect on psoriasis in a dose-dependent manner | pathological analysis of skin (HE×100) ([5]; listed as compound 24): the skin structure was intact, the granular layer was visible, the skin was partly lengthened and clubbed, no acanthosis was observed, and a small amount infiltration of inflammatory cells was observed in the dermis

CCCS(=O)(=O)N(Cc1ccc(Cl)cc1)c1ccc(N2CCN(S(=O)(=O)N(C)C)CC2)c(C#N)c1 [Compound 44, 4-(4-(N-(4-chlorobenzyl)propanesulfonamido)-2-cyanophenyl)-N,N-dimethylpiperazin-1-sulfonamide]
IC50 (human Kv1.3 [1]): 0.096 µM | IC50 (human Kv1.3 [2]): 0.111 µM | IC50 (human Kv1.5): 7.9 µM
